{"source": "ChEMBL document CHEMBL4342414", "about": "“Activity of 2,6,9-trisubstituted purines as potent PDGFRα kinase inhibitors with antileukaemic activity” (Eur J Med Chem, 2019)", "data": [{"tested_on": "EOL1", "assay": "Cytotoxicity against FIP1L1-PDGFRA positive human EOL-1 cells assessed as growth inhibition after 72 hrs by resazurin dye-based fluorescence analysis", "type": "functional", "details": "EOL1, 72 h", "units": {"GI50": "µM"}, "values": [{"smiles": "N[C@H]1CC[C@H](Nc2nc(Nc3ccc(-c4ccoc4)nc3)c3ncn(C4CCCC4)c3n2)CC1", "GI50": 0.017}, {"smiles": "N[C@H]1CC[C@H](Nc2nc(Nc3ccc(Oc4nccs4)cc3)c3ncn(C4CCCC4)c3n2)CC1", "GI50": 0.008}, {"smiles": "N[C@H]1CC[C@H](Nc2nc(Nc3ccccc3CN3CCOCC3)c3ncn(CCCO)c3n2)CC1", "GI50": 10.6}, {"smiles": "COc1ccc(-c2ccc(Nc3nc(N[C@H]4CC[C@H](N)CC4)nc4c3ncn4C3CCCC3)cn2)cc1", "GI50": 0.025}, {"smiles": "COc1ccccc1-c1ccc(Nc2nc(N[C@H]3CC[C@H](N)CC3)nc3c2ncn3C2CCCC2)cc1", "GI50": 0.117}, {"smiles": "NCCCCNc1nc(Nc2ccc(CN3CCOCC3)cc2)c2ncn(C3CCCC3)c2n1", "GI50": 0.049}, {"smiles": "N[C@H]1CC[C@H](Nc2nc(Nc3ccc(Oc4ccc(Br)cn4)cc3)c3ncn(C4CCCC4)c3n2)CC1", "GI50": 0.122}, {"smiles": "N[C@H]1CC[C@H](Nc2nc(Nc3ccc(-c4ccccc4O)nc3)c3ncn(C4CCCC4)c3n2)CC1", "GI50": 0.085}, {"smiles": "OCCCCNc1nc(Nc2ccc(CN3CCOCC3)cc2)c2ncn(CCCO)c2n1", "GI50": 0.294}, {"smiles": "N[C@H]1CC[C@H](Nc2nc(Nc3ccc(CN4CCOCC4)cc3)c3ncn(C4CCC(O)C4)c3n2)CC1", "note": "(some centres not stated)", "GI50": 0.008}, {"smiles": "c1csc(Oc2ccc(Nc3nc(N4CCOCC4)nc4c3ncn4C3CCCC3)cc2)n1", "GI50": 0.347}]}, {"biological_target": "Platelet-derived growth factor receptor alpha (Homo sapiens, UniProt P16234, V561D)", "sequence (P16234 24-1089 V561D limits assumed)": "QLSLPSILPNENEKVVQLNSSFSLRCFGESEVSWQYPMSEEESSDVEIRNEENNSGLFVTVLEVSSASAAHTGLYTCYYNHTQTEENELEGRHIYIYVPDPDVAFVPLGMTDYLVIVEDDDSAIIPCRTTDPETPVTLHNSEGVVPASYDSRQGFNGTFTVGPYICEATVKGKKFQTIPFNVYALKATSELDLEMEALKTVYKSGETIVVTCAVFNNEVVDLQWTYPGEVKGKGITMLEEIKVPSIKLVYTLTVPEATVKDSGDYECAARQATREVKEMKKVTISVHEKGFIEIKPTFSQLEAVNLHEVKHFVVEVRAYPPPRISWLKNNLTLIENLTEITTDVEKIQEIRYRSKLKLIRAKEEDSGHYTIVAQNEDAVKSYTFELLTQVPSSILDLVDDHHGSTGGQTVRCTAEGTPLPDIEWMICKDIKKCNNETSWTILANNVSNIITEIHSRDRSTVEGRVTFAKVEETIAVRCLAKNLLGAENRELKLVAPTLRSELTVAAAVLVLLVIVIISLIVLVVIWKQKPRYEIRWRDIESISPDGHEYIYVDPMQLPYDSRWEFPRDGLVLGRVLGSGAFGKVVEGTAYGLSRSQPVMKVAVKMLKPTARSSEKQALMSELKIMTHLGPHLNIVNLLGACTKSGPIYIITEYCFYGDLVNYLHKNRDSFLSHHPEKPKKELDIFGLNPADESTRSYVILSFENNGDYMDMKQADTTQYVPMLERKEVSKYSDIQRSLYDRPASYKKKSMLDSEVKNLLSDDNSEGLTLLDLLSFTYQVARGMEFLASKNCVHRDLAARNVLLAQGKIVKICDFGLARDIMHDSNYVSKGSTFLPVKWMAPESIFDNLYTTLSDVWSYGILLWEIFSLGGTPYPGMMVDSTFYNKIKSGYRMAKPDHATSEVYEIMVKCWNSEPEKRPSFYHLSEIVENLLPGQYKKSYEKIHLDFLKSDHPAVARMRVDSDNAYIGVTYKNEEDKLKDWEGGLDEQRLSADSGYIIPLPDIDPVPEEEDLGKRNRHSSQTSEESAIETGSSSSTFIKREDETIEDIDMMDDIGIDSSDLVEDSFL", "assay": "biochemical", "type": "cell-based, Sf9", "details": "not given", "units": {"IC50": "µM"}, "values": [{"smiles": "N[C@H]1CC[C@H](Nc2nc(Nc3ccccc3CN3CCOCC3)c3ncn(CCCO)c3n2)CC1", "IC50": "> 20"}]}, {"tested_on": "not listed separately", "assay": "Selectivity index, ratio of GI50 for human BJ cells to GI50 for FIP1L1-PDGFRA positive human EOL-1 cells after 72 hrs by resazurin dye-based fluorescence analysis", "details": "not given", "values": [{"smiles": "N[C@H]1CC[C@H](Nc2nc(Nc3ccccc3CN3CCOCC3)c3ncn(CCCO)c3n2)CC1", "RatioGI50": ">4"}]}, {"tested_on": "K562", "assay": "Cytotoxicity against human K562 cells assessed as growth inhibition after 72 hrs by resazurin dye-based fluorescence analysis", "type": "functional", "details": "K562, 72 h", "units": {"GI50": "µM"}, "values": [{"smiles": "N[C@H]1CC[C@H](Nc2nc(Nc3ccc(-c4ccoc4)nc3)c3ncn(C4CCCC4)c3n2)CC1", "GI50": 0.876}, {"smiles": "N[C@H]1CC[C@H](Nc2nc(Nc3ccc(Oc4nccs4)cc3)c3ncn(C4CCCC4)c3n2)CC1", "GI50": 0.676}, {"smiles": "N[C@H]1CC[C@H](Nc2nc(Nc3ccccc3CN3CCOCC3)c3ncn(CCCO)c3n2)CC1", "GI50": "> 40"}, {"smiles": "COc1ccc(-c2ccc(Nc3nc(N[C@H]4CC[C@H](N)CC4)nc4c3ncn4C3CCCC3)cn2)cc1", "GI50": 0.698}, {"smiles": "COc1ccccc1-c1ccc(Nc2nc(N[C@H]3CC[C@H](N)CC3)nc3c2ncn3C2CCCC2)cc1", "GI50": 2.32}, {"smiles": "NCCCCNc1nc(Nc2ccc(CN3CCOCC3)cc2)c2ncn(C3CCCC3)c2n1", "GI50": 2.79}, {"smiles": "N[C@H]1CC[C@H](Nc2nc(Nc3ccc(Oc4ccc(Br)cn4)cc3)c3ncn(C4CCCC4)c3n2)CC1", "GI50": 6.08}, {"smiles": "N[C@H]1CC[C@H](Nc2nc(Nc3ccc(-c4ccccc4O)nc3)c3ncn(C4CCCC4)c3n2)CC1", "GI50": 0.5}, {"smiles": "OCCCCNc1nc(Nc2ccc(CN3CCOCC3)cc2)c2ncn(CCCO)c2n1", "GI50": 4.74}, {"smiles": "N[C@H]1CC[C@H](Nc2nc(Nc3ccc(CN4CCOCC4)cc3)c3ncn(C4CCC(O)C4)c3n2)CC1", "note": "(some centres not stated)", "GI50": 1.04}, {"smiles": "c1csc(Oc2ccc(Nc3nc(N4CCOCC4)nc4c3ncn4C3CCCC3)cc2)n1", "GI50": "> 40"}]}, {"tested_on": "HCC827", "assay": "Cytotoxicity against human HCC827 cells assessed as growth inhibition after 72 hrs by resazurin dye-based fluorescence analysis", "type": "functional", "details": "HCC827, 72 h", "units": {"GI50": "µM"}, "values": [{"smiles": "N[C@H]1CC[C@H](Nc2nc(Nc3ccc(-c4ccoc4)nc3)c3ncn(C4CCCC4)c3n2)CC1", "GI50": 0.632}, {"smiles": "N[C@H]1CC[C@H](Nc2nc(Nc3ccc(Oc4nccs4)cc3)c3ncn(C4CCCC4)c3n2)CC1", "GI50": 0.692}, {"smiles": "N[C@H]1CC[C@H](Nc2nc(Nc3ccccc3CN3CCOCC3)c3ncn(CCCO)c3n2)CC1", "GI50": "> 40"}, {"smiles": "COc1ccc(-c2ccc(Nc3nc(N[C@H]4CC[C@H](N)CC4)nc4c3ncn4C3CCCC3)cn2)cc1", "GI50": 0.581}, {"smiles": "COc1ccccc1-c1ccc(Nc2nc(N[C@H]3CC[C@H](N)CC3)nc3c2ncn3C2CCCC2)cc1", "GI50": 2.3}, {"smiles": "NCCCCNc1nc(Nc2ccc(CN3CCOCC3)cc2)c2ncn(C3CCCC3)c2n1", "GI50": 2.04}, {"smiles": "N[C@H]1CC[C@H](Nc2nc(Nc3ccc(Oc4ccc(Br)cn4)cc3)c3ncn(C4CCCC4)c3n2)CC1", "GI50": 3.73}, {"smiles": "N[C@H]1CC[C@H](Nc2nc(Nc3ccc(-c4ccccc4O)nc3)c3ncn(C4CCCC4)c3n2)CC1", "GI50": 0.653}, {"smiles": "OCCCCNc1nc(Nc2ccc(CN3CCOCC3)cc2)c2ncn(CCCO)c2n1", "GI50": 10.6}, {"smiles": "N[C@H]1CC[C@H](Nc2nc(Nc3ccc(CN4CCOCC4)cc3)c3ncn(C4CCC(O)C4)c3n2)CC1", "note": "(some centres not stated)", "GI50": 0.801}, {"smiles": "c1csc(Oc2ccc(Nc3nc(N4CCOCC4)nc4c3ncn4C3CCCC3)cc2)n1", "GI50": 15.4}]}, {"tested_on": "not listed separately", "assay": "Cytotoxicity against human BJ cells assessed as growth inhibition after 72 hrs by resazurin dye-based fluorescence analysis", "type": "cell-based", "details": "not given", "units": {"GI50 at 72 h": "µM"}, "values": [{"smiles": "N[C@H]1CC[C@H](Nc2nc(Nc3ccc(-c4ccoc4)nc3)c3ncn(C4CCCC4)c3n2)CC1", "GI50 at 72 h": 13.1}, {"smiles": "N[C@H]1CC[C@H](Nc2nc(Nc3ccc(Oc4nccs4)cc3)c3ncn(C4CCCC4)c3n2)CC1", "GI50 at 72 h": 6.85}, {"smiles": "N[C@H]1CC[C@H](Nc2nc(Nc3ccccc3CN3CCOCC3)c3ncn(CCCO)c3n2)CC1", "GI50 at 72 h": "> 40"}, {"smiles": "COc1ccc(-c2ccc(Nc3nc(N[C@H]4CC[C@H](N)CC4)nc4c3ncn4C3CCCC3)cn2)cc1", "GI50 at 72 h": 7.23}, {"smiles": "COc1ccccc1-c1ccc(Nc2nc(N[C@H]3CC[C@H](N)CC3)nc3c2ncn3C2CCCC2)cc1", "GI50 at 72 h": 22.8}, {"smiles": "NCCCCNc1nc(Nc2ccc(CN3CCOCC3)cc2)c2ncn(C3CCCC3)c2n1", "GI50 at 72 h": 9.54}, {"smiles": "N[C@H]1CC[C@H](Nc2nc(Nc3ccc(Oc4ccc(Br)cn4)cc3)c3ncn(C4CCCC4)c3n2)CC1", "GI50 at 72 h": "> 40"}, {"smiles": "N[C@H]1CC[C@H](Nc2nc(Nc3ccc(-c4ccccc4O)nc3)c3ncn(C4CCCC4)c3n2)CC1", "GI50 at 72 h": 6.35}, {"smiles": "OCCCCNc1nc(Nc2ccc(CN3CCOCC3)cc2)c2ncn(CCCO)c2n1", "GI50 at 72 h": 20.8}, {"smiles": "N[C@H]1CC[C@H](Nc2nc(Nc3ccc(CN4CCOCC4)cc3)c3ncn(C4CCC(O)C4)c3n2)CC1", "note": "(some centres not stated)", "GI50 at 72 h": "> 40"}, {"smiles": "c1csc(Oc2ccc(Nc3nc(N4CCOCC4)nc4c3ncn4C3CCCC3)cc2)n1", "GI50 at 72 h": "> 40"}]}, {"tested_on": "not listed separately", "assay": "Cytotoxicity against human CEM cells assessed as growth inhibition after 72 hrs by resazurin dye-based fluorescence analysis", "type": "cell-based", "details": "CEM (CCRF-CEM) cells", "units": {"GI50 at 72 h": "µM"}, "values": [{"smiles": "N[C@H]1CC[C@H](Nc2nc(Nc3ccc(-c4ccoc4)nc3)c3ncn(C4CCCC4)c3n2)CC1", "GI50 at 72 h": 0.619}, {"smiles": "N[C@H]1CC[C@H](Nc2nc(Nc3ccc(Oc4nccs4)cc3)c3ncn(C4CCCC4)c3n2)CC1", "GI50 at 72 h": 0.65}, {"smiles": "N[C@H]1CC[C@H](Nc2nc(Nc3ccccc3CN3CCOCC3)c3ncn(CCCO)c3n2)CC1", "GI50 at 72 h": "> 40"}, {"smiles": "COc1ccc(-c2ccc(Nc3nc(N[C@H]4CC[C@H](N)CC4)nc4c3ncn4C3CCCC3)cn2)cc1", "GI50 at 72 h": 0.544}, {"smiles": "COc1ccccc1-c1ccc(Nc2nc(N[C@H]3CC[C@H](N)CC3)nc3c2ncn3C2CCCC2)cc1", "GI50 at 72 h": 2.35}, {"smiles": "NCCCCNc1nc(Nc2ccc(CN3CCOCC3)cc2)c2ncn(C3CCCC3)c2n1", "GI50 at 72 h": 3.04}, {"smiles": "N[C@H]1CC[C@H](Nc2nc(Nc3ccc(Oc4ccc(Br)cn4)cc3)c3ncn(C4CCCC4)c3n2)CC1", "GI50 at 72 h": 6.16}, {"smiles": "N[C@H]1CC[C@H](Nc2nc(Nc3ccc(-c4ccccc4O)nc3)c3ncn(C4CCCC4)c3n2)CC1", "GI50 at 72 h": 0.617}, {"smiles": "OCCCCNc1nc(Nc2ccc(CN3CCOCC3)cc2)c2ncn(CCCO)c2n1", "GI50 at 72 h": 5.17}, {"smiles": "N[C@H]1CC[C@H](Nc2nc(Nc3ccc(CN4CCOCC4)cc3)c3ncn(C4CCC(O)C4)c3n2)CC1", "note": "(some centres not stated)", "GI50 at 72 h": 1.42}, {"smiles": "c1csc(Oc2ccc(Nc3nc(N4CCOCC4)nc4c3ncn4C3CCCC3)cc2)n1", "GI50 at 72 h": "> 40"}]}]}
